Data from patent US9809542B2, “Spiroheterocyclically substituted tetramic acid derivatives” (BAYER INTELLECTUAL PROPERTY GMBH, priority 2010, dated 2017).

Experiments:
Format in all cases: in vivo
[1] = test system: larva of the mustard beetle (Phaedon cochleariae); assay: Phaedon test (PHAECO spray treatment); settings: Chinese cabbage leaf discs, after 7 days
Procedure: Phaedon Test ([…] Spray Treatment) Solvents: 78.0 parts by weight of acetone • • 1.5 parts by weight of dimethylformamide Emulsifier: 0.5 part by weight of alkylaryl polyglycol ether To produce a suitable preparation of active compound, one part by weight of active compound is mixed with the stated amounts of solvents and emulsifier, and the concentrate is diluted with emulsifier-containing water to the desired concentration. Discs of Chinese cabbage (Brassica pekinensis) are sprayed with an active compound preparation of the desired concentration and, after drying, populated with larva of the mustard beetle (Phaedon cochleariae).

[2] = test system: caterpillars of the armyworm (Spodoptera frugiperda); assay: Spodoptera frugiperda test (SPODFR spray treatment); settings: application rate 500 g/ha, maize leaf discs, after 7 days
Procedure: Spodoptera frugiperda Test (SPODFR Spray Treatment)
(§1) Solvents: 78.0 parts by weight of acetone
(§2) • 1.5 parts by weight of dimethylformamide Emulsifier: 0.5 part by weight of alkylaryl polyglycol ether
To produce a suitable preparation of active compound, 1 part by weight of active compound is mixed with the stated amounts of solvents and emulsifier, and the concentrate is diluted with emulsifier-containing water to the desired concentration. Discs of maize leaves (Zea mays) are sprayed with an active compound preparation of the desired concentration and, after drying, populated with caterpillars of the armyworm (Spodoptera frugiperda).
After 7 days, the effect in % is determined. 100% means that all caterpillars have been killed; 0% means that none of the caterpillars have been killed.

[3] = test system: green peach aphid (Myzus persicae); assay: Myzus test (MYZUPE spray treatment); settings: application rate 500 g/ha, Chinese cabbage leaf discs, after 6 days
Procedure: Myzus Test (MYZUPE Spray Treatment)
Solvents: 78 parts by weight of acetone
as §2
To produce a suitable preparation of active compound, 1 part by weight of active compound is mixed with the stated amounts of solvents and emulsifier, and the concentrate is diluted with emulsifier-containing water to the desired concentration. Discs of Chinese cabbage (Brassica pekinensis) which are infested by all stages of the green peach aphid (Myzus persicae) are sprayed with an active compound preparation of the desired concentration. After 6 days, the effect in % is determined. 100% means that all aphids have been killed; 0% means that none of the aphids have been killed.

[4] = test system: greenhouse red spidermite (Tetranychus urticae); assay: Tetranychus test OP-resistant (TETRUR spray treatment); settings: application rate 100 g/ha, bean leaf discs, after 6 days
Procedure: Tetranychus Test OP-Resistant (TETRUR Spray Treatment)
as §1, §2
To produce a suitable preparation of active compound, 1 part by weight of active compound is mixed with the stated amounts of solvents and emulsifier, and the concentrate is diluted with emulsifier-containing water to the desired concentration. Discs of bean leaves (Phaseolus vulgaris) which are infested by all stages of the greenhouse red spidermite (Tetranychus urticae) are sprayed with an active compound preparation of the desired concentration.
After 6 days, the effect in % is determined. 100% means that all spidermites have been killed; 0% means that none of the spidermites have been killed.

Echinocloa crus-galli [5] = assay: Herbicidal post-emergence action; settings: post-emergence method, 80 g/ha; about 3 weeks
Excerpt: (§3) • Seeds of monocotyledonous and dicotyledonous weed and crop plants are placed in sandy loam in wood fibre pots and covered with soil. The test compounds, formulated in the form of wettable powders (WP), are then, as aqueous suspension with a water application rate of 600 l/ha (converted), with 0.2% of wetting agent added, applied to the surface of the covering soil in various dosages. • After the treatment, the pots are placed in a greenhouse and kept under good growth conditions for the test plants. The visual assessment of the emergence damage on the test plants is carried out after a trial period of about 3 weeks by comparison with untreated controls (herbicidal effect in %: 100% effect=the plants have died, 0% effect=like control plants). • In addition to the compounds mentioned above, the following compounds, applied by the pre-emergence method at 320 g of a.i./ha, show an efficacy of 90% against Lolium multiflorum and Setaria viridis: I-1-a-1 • In addition to the compounds mentioned above, the following compounds, applied by the pre-emergence method at 320 g of a.i./ha, show an efficacy of 100% against Echinocloa crus-galli: I-a-2, I-b-1, I-b-2, I-c-2 2. Herbicidal Post-Emergence Action • Seeds of monocotyledonous and dicotyledonous weed and crop plants are placed in sandy loam in wood fibre pots, covered with soil and cultivated in a greenhouse under good growth conditions. 2-3 weeks after sowing, the test plants are treated at the one-leaf stage. The test compounds, formulated as wettable powders (WP), are, in various dosages at a water application rate of 600 l/ha (converted), with 0.2% of wetting agent added, sprayed onto the green parts of the plants. After the test plants have been kept in the greenhouse under optimum growth conditions for about 3 weeks, the effect of the preparations is rated visually in comparison to untreated controls (herbicidal effect in %: 100% effect=the plants have died, 0% effect=like control plants). • In addition to the compounds mentioned above, the following compounds, applied by the post-emergence method at 80 g/ha, show an efficacy of 90% against Echinocloa crus-galli and Lolium multiflorum: I-a-3, I-a-4, I-a-5.

Lolium multiflorum = assay: Herbicidal post-emergence action; settings: post-emergence method, 80 g/ha; about 3 weeks
Excerpt: as §3

Echinocloa crus-galli [6] = assay: Herbicidal pre-emergence action; settings: pre-emergence method, 320 g of a.i./ha; about 3 weeks
Excerpt: 1. Herbicidal Pre-Emergence Action
as §3

Lucilia cuprina larva = assay: Lucilia cuprina test (LUCICU); settings: application rate 100 ppm; treated horse meat; after 2 days
Procedure: Lucilia cuprina Test (LUCICU)
Solvent: Dimethyl sulphoxide
To produce a suitable preparation of active compound, 10 mg of active compound are mixed with 0.5 ml of dimethyl sulphoxide and the concentrate is diluted with water to the desired concentration. Containers containing horse meat treated with the active compound preparation of the desired concentration are populated with about 20 Lucilia cuprina larva.
After 2 days, the kill in % is determined. 100% means that all larva have been killed; 0% means that none of the larva have been killed.

Compound	efficacy (effect in %, caterpillars killed) [2] [%]	efficacy (effect in %, aphids killed) [3] [%]	efficacy (effect in %, spidermites killed) [4] [%]	further results
CCON1CCC2(CC1)NC(=O)C(c1cc(-c3ccc(F)cc3)ccc1Cl)=C2O [I-a-3]	83	100	90	efficacy (effect in %, beetle larva killed) ([1]; application rate 500 g/ha): 100%; efficacy (herbicidal effect in %) (Echinocloa crus-galli [5]): 90%; efficacy (herbicidal effect in %) (Lolium multiflorum): 90%
CON1CCC2(CC1)NC(=O)C(c1cc(-c3ccc(F)cc3)ccc1Cl)=C2O [I-a-4]	83	100	100	efficacy (herbicidal effect in %) (Echinocloa crus-galli [5]): 90%; efficacy (herbicidal effect in %) (Lolium multiflorum): 90%
CON1CCC2(CC1)NC(=O)C(c1cc(-c3ccc(F)cc3)ccc1C)=C2O [I-a-5]	100	100	90	efficacy (herbicidal effect in %) (Echinocloa crus-galli [5]): 90%; efficacy (herbicidal effect in %) (Lolium multiflorum): 90%
CCON1CCC2(CC1)NC(=O)C(c1cc(-c3ccc(F)cc3)ccc1C)=C2O [I-a-6]	100	100	90	efficacy (effect in %, beetle larva killed) ([1]; application rate 100 g/ha): 100%
CCON1CCC2(CC1)NC(=O)C(c1c(OC)ccc(-c3ccc(F)cc3)c1Cl)=C2O [I-a-7]		100	90	
CCc1ccc(-c2ccc(F)cc2)c(C)c1C1=C(O)C2(CCN(OC)CC2)NC1=O [I-a-8]		90	90	efficacy (effect in %, beetle larva killed) ([1]; application rate 500 g/ha): 100%
CCON1CCC2(CC1)NC(=O)C(c1c(CC)ccc(-c3ccc(F)cc3)c1C)=C2O [I-a-9]		90	90	efficacy (effect in %, beetle larva killed) ([1]; application rate 500 g/ha): 100%
COc1ccc(-c2ccc(F)cc2)c(Cl)c1C1=C(O)C2(CCN(OC)CC2)NC1=O [I-a-10]		100	90	
CCON1CCC2(CC1)NC(=O)C(c1c(C)ccc(-c3ccc(F)c(F)c3)c1C)=C2O [I-a-11]		100	100	
CCON1CCC2(CC1)NC(=O)C(c1c(C)ccc(-c3ccc(F)c(Cl)c3)c1C)=C2O [I-a-12]	83	100	100	
CON1CCC2(CC1)NC(=O)C(c1c(C)ccc(-c3ccc(F)c(F)c3)c1C)=C2O [I-a-13]		100	100	
CCON1CCC2(CC1)NC(=O)C(c1c(C)ccc(-c3ccc(Cl)c(F)c3)c1C)=C2O [I-a-14]	100	100	90	
CON1CCC2(CC1)NC(=O)C(c1c(C)ccc(-c3ccc(Cl)c(F)c3)c1C)=C2O [I-a-15]	100	100	100	
CON1CCC2(CC1)NC(=O)C(c1c(C)ccc(-c3ccc(F)cc3)c1C)=C2OC(=O)C(C)C [I-b-1]	100	100		efficacy (herbicidal effect in %) (Echinocloa crus-galli [6]): 100%
CCON1CCC2(CC1)NC(=O)C(c1c(C)ccc(-c3ccc(F)cc3)c1C)=C2OC(=O)C(C)C [I-b-2]	100	100		efficacy (herbicidal effect in %) (Echinocloa crus-galli [6]): 100%
CCOC(=O)OC1=C(c2c(C)ccc(-c3ccc(F)cc3)c2C)C(=O)NC12CCN(OC)CC2 [I-c-1]	100	100		
CCOC(=O)OC1=C(c2c(C)ccc(-c3ccc(F)cc3)c2C)C(=O)NC12CCN(OCC)CC2 [I-c-2]	100	100		efficacy (kill in %) (Lucilia cuprina larva): 80%; efficacy (herbicidal effect in %) (Echinocloa crus-galli [6]): 100%
CCOC(=O)OC1=C(c2c(OC)ccc(-c3ccc(F)cc3)c2Cl)C(=O)NC12CCN(OC)CC2 [I-c-3]			90	
